The values that follow come from patent US20080200404A1, “Novel Antimalarial 9A-Carbamoyl-Aminoalkyl and 9A-Thiocarbamoyl-Aminoalkyl Azalides” (priority 2005, published 2008).

In experiment [1] the test system is Plasmodium yoelli nigeriensis. The conditions noted are these: cited from earlier work.
In a further experiment the test system is Plasmodium berghei. The conditions noted are these: cited from earlier work.
Another experiment relates to Plasmodium cynomolgi. As to conditions: rhesus monkey; cited from earlier work.
The next experiment relates to Plasmodium falciparum. The conditions noted are these: non-immune patients, as compared to controls; cited from earlier work.
Another experiment relates to Plasmodium vivax. The conditions noted are these: non-immune patients, as compared to controls; cited from earlier work.
Experiment [2] has as its system Plasmodium falciparum clone CDC/Indochina III (W-2). Put plainly: In vitro antimalarial [3H]-hypoxanthine incorporation serial dilution assay, W2. The experiment is classed as cell-based. As to conditions: Plasmodium falciparum; P. falciparum W2, 72 hours exposure. The method, boiled down: (§1)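 IC50 came from logistic fitting of eleven two-fold compound dilutions, read as [3H]-hypoxanthine uptake into parasite DNA relative to untreated infected wells after 72 h. Parasites were grown in A+ human erythrocytes (6%) in RPMI-1640 with plasma or ALBUMAX at 37° C, 5% CO2, 5% O2.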

Experiment [3] relates to Plasmodium falciparum TM91C235. Put plainly: In vitro antimalarial [3H]-hypoxanthine incorporation assay, TM91C235. The experiment is classed as cell-based. As to conditions: Plasmodium falciparum; P. falciparum TM91C235 (multiple drug resistant isolate), 72 hours exposure. The method, boiled down: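 Growth was read by [3H]-hypoxanthine incorporation after 72 h total incubation, as CPM normalized to the mean of untreated infected controls. Erythrocytic-stage TM91C235 (0.4% parasitemia, 1% hematocrit, ALBUMAX medium without folate or PABA, 5% O2/5% CO2, 37° C) was first exposed 48 h to compound at three levels, 25–25,000 ng/ml, in duplicate.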

Experiment [4] has as its system Plasmodium falciparum clone CDC/Sierra Leone I (D-6). Put plainly: In vitro antimalarial [3H]-hypoxanthine incorporation serial dilution assay, D6. The experiment is classed as cell-based. As to conditions: Plasmodium falciparum, D6, 72 h, P. falciparum D6, 72 hours exposure; read-out: IC50 D6. An outline of the steps:
as §1

Regarding midecamycinin, the “activity in mouse model” value (in experiment [1]; in the experiment on Plasmodium berghei) was “active” throughout. The “efficacy in monkey model” value in the experiment on Plasmodium cynomolgi is recorded as “no efficacy”.
As to `CC[C@H]1OC(=O)[C@H](C)[C@@H](O[C@H]2C[C@@](C)(OC)[C@@H](O)[C@H](C)O2)[C@H](C)[C@@H](O[C@@H]2O[C@H](C)C[C@H](N(C)C)[C@H]2O)[C@](C)(O)C[C@@H](C)CN(C)[C@H](C)[C@@H](O)[C@]1(C)O` [azithromycin], the “prophylactic efficacy for Plasmodium falciparum” value in the experiment with Plasmodium falciparum is on record as 71.6%. Further, in the experiment on Plasmodium vivax, the “prophylactic efficacy for Plasmodium vivax” value is given as 98.9%. Also, the “efficacy in monkey model” value in the experiment with Plasmodium cynomolgi is recorded as “active”.
On to `CC[C@H]1OC(=O)[C@H](C)[C@@H](O[C@H]2C[C@@](C)(OC)[C@@H](O)[C@H](C)O2)[C@H](C)[C@@H](O[C@@H]2O[C@H](C)C[C@H](N(C)C)[C@H]2O)[C@](C)(O)C[C@@H](C)CN(CCCNC(=S)Nc2ccsc2C(=O)OC)[C@H](C)[C@@H](O)[C@]1(C)O.O=CO` [Example 147], for which the IC50 was determined as 0.389 µg/mL in experiment [2], 0.343 µg/mL in experiment [3] and 0.469 µg/mL in experiment [4].
